According to patent publication US20250043290A1, “RNA SEQUENCES THAT INDUCE FLUORESCENCE OF SMALL MOLECULE FLUOROPHORES, MOLECULAR COMPLEXES, SENSORS, AND METHODS OF USE THEREOF” (CORNELL UNIVERSITY, priority 2021, published 2025):
Where two headings read alike, the source gives them in different places. Marks after values point to notes of the source that are not given here.

Key:
[1] = Photophysical properties of fluorophores and RNA-fluorophore complexes (Squash study); type: physicochemical
Procedure: All RNAs used for in vitro studies (except the initial hits from SELEX and the DE2-6 mutants) were purified using 8% denaturing PAGE (7M urea) and eluted in 0.3 M NaOAc (pH 5.2) overnight. The RNA was ethanol precipitated and quantified using absorbance in a NanoDrop 2000 spectrometer. All in vitro RNA properties were measured in 40 mM HEPES-KOH (pH 7.4), 100 mM KCl, 0.5 mM MgCl2 buffer unless specified.
Absorption, excitation, and emission spectra were measured using conditions where the RNA is in excess and the fluorophore is limiting to ensure that no free fluorophore contributes to the absorbance or fluorescence signal (FIGS. 7A-7D).
All quantum yields were determined by comparing each RNA-fluorophore complex with Broccli-DFHBI-1T or Corn-DFHO. All measurements for quantum yield were taken in the presence of excess RNA (10 μM final) compared to the fluorophores (0.2 μM final) to avoid interference from unbound fluorophore. The integral of the emission spectra for each Squash-fluorophore complex was compared with the corresponding integrals for Broccoli or Corn to calculate the quantum yield.

[2] = data from Song et al., cited from earlier work
HEK293T cells = experiment: RNA assemblies of multivalent Corn or Beetroot in cells; type: cell-based; conditions: circular RNA, means±s.d.
Procedure: FIGS. 33A-33C provide the dissociation constant (Kd) of Beetroot homodimer. […] These RNAs were incubated at 20° C. for 12 hours and then analyzed using non-denaturing gel electrophoresis (FIG. 33A). The fraction of Beetroot monomer (FIG. 33B) and Beetroot dimer (FIG. 33C) were quantified after SYBR Gold staining. […] The RNA band marked with an asterisk (*) reflects an RNA side product from in vitro transcription. The same side product band was also observed in FIGS. 27B-27C. Quantification shown in […] is based on two independent experiments. FIG. 33D are images showing genetic encoding of simple macromolecular RNA assemblies in cells using Corn when circular RNAs containing 3 and 5 copies of Corn were expressed in HEK293T cells. Clusters of these Corn-containing RNAs were observed as large intracellular puncta. Data shown here is a representative image from three independent cell cultures. Scale bar, 20 μm. FIG. 33E is a graph showing the quantification of the fraction of Corn and Beetroot in the cell that accumulates in puncta. As the valency of Corn increases from three to five, the fraction of Corn participating in the RNA assembly increases from 28±12% to 57±14%. Compared to 5× Corn, a fraction of 27±11% of 5× Beetroot are participating in the Beetroot RNA assembly. Values are means±s.d. FIG. 33F is a graph showing quantification of RNA assembly size in cells. Shown are the size distribution of RNA assemblies created using the indicated multivalent Corn or Beetroot RNA. As the valency of Corn increases from three to five, an increase in the median RNA assembly size was noticed from 0.88±0.37 μm to 1.0±0.54 μm. Compared to 5× Corn, 5× Beetroot assembly has a size of 0.68±0.25 μm. Values are means±s.d.
For to live-cell fluorescence imagining experiments, HEK293T cells were seeded into 35-mm imaging dishes precoated with poly-D-lysine (Mattek Corporation, P35GC-1.5-14C) and mouse laminin I (Cultrex, 3401-010-02) with a cell density of 4.5×10^5 cells per dish. On the next day, HEK293T cells were transfected with DNA plasmids as indicated in figures with fluorescence imaging experiments using FuGENE HD. Transfections were performed according FuGENE HD manufacturer's instructions. HEK293T cells were then cultured for two days before imaging.
Prior to imaging experiments, HEK293T cells were incubated with 1 μl of Hoechst 33342 (Thermo Fisher Scientific, H3570) per 2 ml of imaging media (phenol red-free Dulbeco's modified Eagle's medium (Thermo Fisher Scientific 31053-028) supplemented with 10% fetal bovine serum (Corning 35-010-CV), 100 U ml-1 of penicillin and […] of streptomycin, 1× GlutaMAX (Thermo Fisher Scientific, 35050-061) and 1 mM sodium pyruvate (Thermo Fisher Scientific, 11360-070)). For imaging experiments of RNA-fluorophore complex, HEK293T cells were incubated with imaging media supplemented with a final concentration of 10 μM fluorophore (DFHO or DFAME) and 5 mM MgCl2 for one hour prior to imaging.
For all imaging experiments, an epifluorescence inverted microscope (Nikon Eclipse TE2000-E) was used equipped with a CoolSnap HQ2 CCD camera and a 130-W Nikon mercury lamp. The microscope and camera were controlled using the NIS-Elements Advanced Research software (Nikon). Cells were imaged with a 60× oil objective with a numerical aperture of 1.4 (Nikon) at 37° C. A FITC filter cube (with excitation filter 470±20 nm, dichroic mirror 495 nm (long pass) and emission filter 525±25 nm) was used for imaging GFP-N-peptide. A YFP filter cube (with excitation filter 500±12 nm, dichroic mirror 520 nm (long pass) and emission filter 542±13.5 nm) was used for imaging Corn-DFHO complex. A tetramethylrhodamine filter cube (with excitation filter 560±20 nm, dichroic mirror 585 nm (long pass) and emission filter 630±37.5 nm) was used for imaging mCherry-MCP and Beetroot-DFAME complex.

[3] = 40 mM HEPES-KOH (pH 7.4), 100 mM KCl, 0.5 mM MgCl2

CN1C(=O)/C(=C/c2cc(F)c(O)c(F)c2)N=C1/C=N/O [DFHO, 4-(3,5-difluoro-4-hydroxybenzylidene)-1-methyl-5-oxo-4,5-dihydro-1H-imidazole-2-carbaldehyde oxime]
Emission maximum [1, 3]: 561 nm
Excitation maximum [1, 3]: 473 nm
Fluorescence quantum yield ([1]; compared with Broccoli-DFHBI-1T or Corn-DFHO): 0.0006
Extinction coefficient ([1]; free DFHO, at 495 nm): 27,000** M^−1cm^−1
Brightness (extinction coefficient × quantum yield) ([1]; relative to Corn): 0.22
Extinction coefficient ([2]; DFHO alone, at 505 nm, pH 7.4 buffer): 19,800 M^−1cm^−1
Emission maximum [2]: 561 nm
Excitation maximum [2]: 473 nm
Fluorescence quantum yield [2]: 0.0006
Brightness (extinction coefficient × quantum yield) ([2]; relative to Corn-DFHO): 0.16

B1: 3× Corn: circular RNA containing 3 copies of Corn, SEQ ID NO: 100 (nucleic acid)
chain: AACCAUGCCGACUGAUGGCAGUACCGUAGGCGAAUUCUUGCCAUGUGUAUGUGGGAGGCCCGGAUAGCUCAGUCGGUAGAGCAGCGGCCGCGCGAUUCGAGGAAGGAGGUCUGAGGAGGUCACUGAAUCGCGCGGCCGCGGGUCCAGGGUUCAAGUCCCUGUUCGGGCCUCCCACAUACUCUGAUGAUCCAAAACUGCCCGAGGAUCAUUCAUGGCAAACUCGACGUUCGUCAGACUCCUCGCGAUGUCUAUGCGGGAGGCCCGGAUAGCUCAGUCGGUAGAGCAGCGGCCGCGCGAUUCGAGGAAGGAGGUCUGAGGAGGUCACUGAAUCGCGCGGCCGCGGGUCCAGGGUUCAAGUCCCUGUUCGGGCCUCCCGCAUAGUCUGAUCAUCCAAAACUGCCCGAGGGGAUGAUUCAUCGCGAAUCGCGACGAUCGUCACUACCGGCGUCUGACGAACGUCGAACUCGCCGUGUGUGUGUAGGAGGCCCGGAUAGCUCAGUCGGUAGAGCAGCGGCCGCGCGAUUCGAGGAAGGAGGUCUGAGGAGGUCACUGAAUCGCGCGGCCGCGGGUCCAGGGUUCAAGUCCCUGUUCGGGCCUCCUACACACUCUGACGAUCCAAAACUGCCCGAGGGGAUCGUUCACGGCGAACUCACGUCGGUGGAGCUAGCGCCUACGGUACUGCCAUCAGUCGGCGUGGACUGUAG
modifications: circular
Fraction of RNA in the cell that accumulates in puncta (HEK293T cells): 28±12%
RNA assembly size (HEK293T cells): 0.88±0.37 μm

B2: 5× Corn: circular RNA containing five Corn monomers, same as 5X Corn-MS2, SEQ ID NO: 101 (nucleic acid)
chain: AACCAUGCCGACUGAUGGCAGUACCGUAGGCGAAUUCUUGCCAUGUGUAUGUGGGAGGCCCGGAUAGCUCAGUCGGUAGAGCAGCGGCCGCGCGAUUCGAGGAAGGAGGUCUGAGGAGGUCACUGAAUCGCGCGGCCGCGGGUCCAGGGUUCAAGUCCCUGUUCGGGCCUCCCACAUACUCUGAUGAUCCAAAACUGCCCGAGGAUCAUUCAUGGCAAACUCGACGUUCGUCAGACUCCUCGCGAUGUCUAUGCGGGAGGCCCGGAUAGCUCAGUCGGUAGAGCAGCGGCCGCGCGAUUCGAGGAAGGAGGUCUGAGGAGGUCACUGAAUCGCGCGGCCGCGGGUCCAGGGUUCAAGUCCCUGUUCGGGCCUCCCGCAUAGUCUGAUCAUCCAAAACUGCCCGAGGGGAUGAUUCAUCGCGAAUCGCGACGAUCGUCACUACCGGUUCACUUUGUAGACCAGGCUGGUGUACAACUUGCGACUUUGCCAUGUGUAUGUGGGAGGCCCGGAUAGCUCAGUCGGUAGAGCAGCGGCCGCGCGAUUCGAGGAAGGAGGUCUGAGGAGGUCACUGAAUCGCGCGGCCGCGGGUCCAGGGUUCAAGUCCCUGUUCGGGCCUCCCACAUACUCUGAUGAUCCACGCGUAACAUGAGGAUCACCCAUGUCGAGGUACCAUCAUUCAUGGCAAAGUCGCAAGUAUCGGUCAACCUAGUGGGCCCAGUGACGAUCGUCGCCCAUCGCCUUGUGUCUGUUGGAGGCCCGGAUAGCUCAGUCGGUAGAGCAGCGGCCGCGCGAUUCGAGGAAGGAGGUCUGAGGAGGUCACUGAAUCGCGCGGCCGCGGGUCCAGGGUUCAAGUCCCUGUUCGGGCCUCCAACAGACUCUGACGAUCCAAAACUGCCCGAGGGGAUCGUUCAAGGCGAGAGCUCGUCUGACGAACGUCGAACUCGCCGUGUGUGUGUAGGAGGCCCGGAUAGCUCAGUCGGUAGAGCAGCGGCCGCGCGAUUCGAGGAAGGAGGUCUGAGGAGGUCACUGAAUCGCGCGGCCGCGGGUCCAGGGUUCAAGUCCCUGUUCGGGCCUCCUACACACUCUGACGAUCCAAAACUGCCCGAGGGGAUCGUUCACGGCGAACUCACGUCGGUGGAGCUAGCGCCUACGGUACUGCCAUCAGUCGGCGUGGACUGUAG
modifications: circular
Fraction of RNA in the cell that accumulates in puncta (HEK293T cells): 57±14%
RNA assembly size (HEK293T cells): 1.0±0.54 μm

B3: 5× Beetroot: circular RNA comprising 5× Beetroot fused to boxB, SEQ ID NO: 102 (nucleic acid)
chain: AACCAUGCCGACUGAUGGCAGUACCGUAGGCGAAUUCUUGCCAUGUGUAUGUGGGAGGCCCGGAUAGCUCAGUCGGUAGAGCAGCGGCCGGUUAGGCAGAGGUGGGUGGUGUGGAGGAGUAUCUGUCCGGCCGCGGGUCCAGGGUUCAAGUCCCUGUUCGGGCCUCCCACAUACUCUGAUGAUCCAAAACUGCCCGAGGAUCAUUCAUGGCAAACUCGACGUUCGUCAGACUCCUCGCGAUGUCUAUGCGGGAGGCCCGGAUAGCUCAGUCGGUAGAGCAGCGGCCGGUUAGGCAGAGGUGGGUGGUGUGGAGGAGUAUCUGUCCGGCCGCGGGUCCAGGGUUCAAGUCCCUGUUCGGGCCUCCCGCAUAGUCUGAUCAUCCAAAACUGCCCGAGGGGAUGAUUCAUCGCGAAUCGCGACGAUCGUCACUACCGGUGACUCGCUAUCGGUUAUGGCAUGUACAACUUGCGACUUUGCCAUGUGUAUGUGGGAGGCCCGGAUAGCUCAGUCGGUAGAGCAGCGGCCGGUUAGGCAGAGGUGGGUGGUGUGGAGGAGUAUCUGUCCGGCCGCGGGUCCAGGGUUCAAGUCCCUGUUCGGGCCUCCCACAUACUCUGAUGAUCCACGCGUACAUUGGCCCUGAAAAAGGGCAAGCGAGGUACCAUCAUUCAUGGCAAAGUCGCAAGUAUCGGUCAACCUAGUGGGCCCAGUGACGAUCGUCGCCCAUCGCCUUGUGUCUGUUGGAGGCCCGGAUAGCUCAGUCGGUAGAGCAGCGGCCGGUUAGGCAGAGGUGGGUGGUGUGGAGGAGUAUCUGUCCGGCCGCGGGUCCAGGGUUCAAGUCCCUGUUCGGGCCUCCAACAGACUCUGACGAUCCAAAACUGCCCGAGGGGAUCGUUCAAGGCGAGAGCUCGUCUGACGAACGUCGAACUCGCCGUGUGUGUGUAGGAGGCCCGGAUAGCUCAGUCGGUAGAGCAGCGGCCGGUUAGGCAGAGGUGGGUGGUGUGGAGGAGUAUCUGUCCGGCCGCGGGUCCAGGGUUCAAGUCCCUGUUCGGGCCUCCUACACACUCUGACGAUCCAAAACUGCCCGAGGGGAUCGUUCACGGCGAACUCACGUCGGUGGAGCUAGCGCCUACGGUACUGCCAUCAGUCGGCGUGGACUGUAG
modifications: circular
Fraction of RNA in the cell that accumulates in puncta (HEK293T cells): 27±11%
RNA assembly size (HEK293T cells): 0.68±0.25 μm
